Legend:
[1] = test system: B16 melanoma; experiment: Therapeutic vaccination of established B16 melanoma (tumor growth, survival); format: in vivo, HHD or C57BL/6 (B6) mice; conditions: for Survival of B16-bearing HHD mice: followed through 60 days post-tumor inoculation (FIG. 11C); for B16 tumor growth in HHD mice: therapeutic vaccines, HHD mice (FIG. 11B)
Experimental: FIGS. 11A-11C show a series of graphs illustrating that DC.IL12 vaccines containing TASA-derived peptides are therapeutic against MC38 colon carcinomas and B16 melanomas in HHD mice. In FIG. 11A, HHD mice bearing established day seven subcutaneous MC38 tumors (right flank) were left untreated, or they were vaccinated in the left flank with control DC.IL12 or DC.IL12 pulsed with an equimolar pool (10 μM each) of the following TASA-derived peptides: DLK1326-334, EPhA2883-891, HBB31-39, NRP1869-877, PDGFRβ890-898, RGS55-13 and TEM1691-700. Identical booster vaccines were provided on day 14 post-tumor inoculation. As indicated, two vaccine cohorts were treated with depleting anti-CD4 or anti-CD8 monoclonal antibodies to evaluate the impact of these T cell subsets on therapy outcome. Tumor growth was monitored every 3-4 days through d28. In FIG. 11B, Female HHD or C57BL/6 (B6) mice were inoculated subcutaneously in the right flank with 1×10^5B16 (HLA-A2^neg) tumor cells. […] The mice then received vaccines consisting of isologous control or peptide-pulsed DC.IL12 cells subcutaneously in the left flank on days 10 and 17 (post-tumor inoculation). In cases where more than one peptide was identified for a given target antigen, an equimolar pool of the indicated peptides (each 10 μM) was pulsed onto DC.IL12 and used for vaccination. Tumor size (mean+/−SD) was monitored every 3-4 days through day 34. In FIG. 11A and FIG. 11B, mean tumor area+/−SD is reported for 5 animals/cohort. Data are the representative of those obtained in two independent experiments in each case. *p<0.05 versus DC only on the indicated days. In FIG. 11C, HHD mice bearing subcutaneous B16 melanomas were treated as described in FIG. 11B and followed through day 60 post-tumor inoculation. Data are reported in a Kaplan-Meier plot depicting overall percentage of surviving animals over time. *p<0.02 versus DC only; **p<0.002 versus DC only (with refined p-values for differences between treatment cohorts reported in Table 6). Data are cumulative for three independent experiments performed.
Vaccine Experiments. For prophylactic experiments, HHD mice were immunized subcutaneously on the right flank with 100 μl PBS or PBS containing 10^6 syngenic DC.IL12 cells that had been untreated or pre-pulsed for 4 h at 37° C. with 10 μM synthetic peptide(s). […] For analysis of tumor cellular composition in repeat experiments, MC38 tumors were isolated by surgical resection 10 days after tumor inoculation and prepared for fluorescence imaging, as described below. […] In some assays, as indicated, in vivo antibody depletions (on days 6, 13 and 20 post-tumor inoculation to assess early involvement or on days 60 and 67 or 180 and 187 to assess late involvement) of protective CD4^+ T cells or CD8^+ T cells were performed and monitored as previously described (Zhao et al., Mol Ther., 19:805-814, 2011). In all cases, tumor size (area) was monitored every 3-4 days and is reported as mean+/−SD in mm^2.
To analyze the status and specificity of Tc1 cells, HHD mice rendered free of B16 melanoma after therapeutic vaccination with DLK or RGS5 peptide-based vaccines were sacrificed 60 days after tumor inoculation. Fresh MACS-isolated spleen CD8^+ T cells were then analyzed for reactivity against HLA-A2^+PDGFRβ^+CD31^neg pericytes, HLA-A2^+PDGFRβ^negCD31^+ VEC or HLA-A2^neg tumor cells flow-sorted from day 19 B16 tumors growing progressively in untreated HHD mice. […]

[2] = test system: CD8+ splenocytes; experiment: Tc1 response to DC.IL12/peptide vaccination (splenic CD8+ T cell IFN-γ ELISA against peptide-pulsed T2 cells); format: in vivo, HHD mice; conditions: DC.IL12 pulsed with peptide(s), two s.c. vaccinations; versus DC only
Source text: FIGS. 9A-9B show a series of graphs illustrating induction of specific/protective CD8^+ T cells reactive against TASA as a consequence of DC/peptide-based vaccination. In FIG. 9A, HHD mice (five animals/cohort) were vaccinated twice (d-14, d-7) subcutaneously with PBS or with isologous DC.IL12 pulsed with PBS or synthetic peptides (Table 6) derived from the indicated TASA. In cases where more than 1 peptide was identified for a given target antigen, an equimolar pool of the indicated peptides (each 10 μM) was pulsed onto DC.IL12 and used for vaccination in the relevant cohort. One week after the second immunization, spleens were harvested and splenic CD8^+ T cells isolated using MACS-beads (Miltenyi). T cells were stimulated in vitro for 48 h using the HLA-A2^+ T2 cell line pulsed with relevant TASA vs. irrelevant HIV-nef190-198 ([…]; ref. 24) peptides. Cell-free supernatants were then recovered and IFN-γ levels by ELISA. Data are reported as mean+/−SD for triplicate ELISA determinations, and are representative of 3 independent experiments performed. *p<0.05 vs. HIV-nef control peptide responses. In FIG. 9B, HHD mice were vaccinated twice (days −14 and −7; right flank) subcutaneously with PBS or with isologous DC.IL12 pulsed with PBS or synthetic TASA peptides as indicated in FIG. 1A. In cases where more than 1 peptide is identified for a given target antigen, an equimolar pool of the indicated peptides (each 10 μM) was pulsed onto DC.IL12 and used for vaccination in the relevant cohort. One week after the booster vaccine (i.e. day zero), animals were challenged subcutaneously on their left flank with 2×10^6 MC38 colon carcinoma cells. Tumor growth was then monitored every 3-4 days through day 24. All data represent mean tumor area (in mm^2)+/−SD determined from 5 mice/cohort, and are representative of three independent experiments performed. *p<0.05 versus DC only on the indicated days.
Vaccine Experiments. For prophylactic experiments, HHD mice were immunized subcutaneously on the right flank with 100 μl PBS or PBS containing 10^6 syngenic DC.IL12 cells that had been untreated or pre-pulsed for 4 h at 37° C. with 10 μM synthetic peptide(s). Immunizations occurred on days −14 and −7, with mice subsequently receiving injections of MC38 (2×10^6) tumor cells in the left flank on d0. In all cases, treatment groups contained 5 mice per cohort. For analysis of tumor cellular composition in repeat experiments, MC38 tumors were isolated by surgical resection 10 days after tumor inoculation and prepared for fluorescence imaging, as described below. […] Mice were then untreated or treated with control, syngenic DC.IL12 or DC.IL12 (10^6 cells injected subcutaneously in the left flank on days 7 and 14) pulsed with synthetic TBVA peptides. In some assays, as indicated, in vivo antibody depletions (on days 6, 13 and 20 post-tumor inoculation to assess early involvement or on days 60 and 67 or 180 and 187 to assess late involvement) of protective CD4^+ T cells or CD8^+ T cells were performed and monitored as previously described (Zhao et al., Mol Ther., 19:805-814, 2011). In all cases, tumor size (area) was monitored every 3-4 days and is reported as mean+/−SD in mm^2.
Evaluation of Specific CD8^+ T Cell Responses in HHD Mice. MACS (Miltenyi Biotec) CD8^+ splenocytes were harvested (from 3 mice/group) 7 days after the second round of DC-based vaccination (i.e. day 21 after tumor inoculation) and analyzed for reactivity against unpulsed T2 cells, TBVA peptide-pulsed T2 cells, or day 19 (flow-sorted) B16-derived PDGFRβ^+CD31^negH-2K^b(neg) pericytes or PDGFRβ^negCD31^+H-2K^b(neg) VEC isolated as previously described (Zhao et al., Mol Ther., 19:805-814, 2011). Where indicated, 10 μg of anti-HLA-A2 mAb BB7.2 or control anti-class II mAb L243 (both from ATCC, Manassas, Va.) were added to replicate co-culture wells. After 48 h, supernatants were analyzed for mIFN-γ content by specific ELISA (BD-Biosciences; lower detection limit=31.3 pg/ml). […]

| Substance | Survival of B16-bearing HHD mice [1] | B16 tumor growth in HHD mice [1] | Tc1 Response to Peptide Vaccine (HHD) [2] |
| --- | --- | --- | --- |
| EphA2: EphA2-derived peptide 883-891 pulsed onto DC or DC.IL12 (TLADFDPRV; listed as Homo sapiens) | significant survival benefits | effective in suppressing tumor growth | – |
| LAALPHSCL (listed as Homo sapiens) | – | – | + (+, p < 0.05 versus DC only) |
| RGS5: RGS5-derived peptide 5-13 pulsed onto DC or DC.IL12 (LAALPHSCL; listed as Homo sapiens) | significant survival benefits | effective in suppressing tumor growth | – |
| TEM1: TEM1-derived peptide 691-700 pulsed onto DC or DC.IL12 (LLVPTCVFLV; listed as Homo sapiens) | significant survival benefits | – | – |
